Source: patent US7388017B2, “Inhibitors of serine proteases, particularly hepatitis C virus NS3 protease” (Vertex Pharmaceuticals Incorporated, priority 1996, dated 2008)
Starred links: 1 amine or outer side, 2 acyl side, 3 side chain; linkers in the order of their positions; H or OH if unused. Non-standard residues stand in square brackets, D forms with d. Residues, ends and D or L forms follow the SMILES beside them. Groups on a side chain read outwards from the residue. ξ: configuration not given here. *: point of attachment. ξ(3-Amino-2-oxopentanoyl) = CCC(N[*:1])C(=O)C(=O)[*:2]; NH(1,3-benzodioxol-5-yl) = c1cc2c(cc1N*)OCO2; Benzyl(3,4-Cl2) = Clc1ccc(C*)cc1Cl; Hydrocinnamoyl = O=C(CCc1ccccc1)*; Pyrazinecarbonyl = O=C(c1cnccn1)*; NH(3-Cl-phenyl) = Clc1cccc(N*)c1; X26 = Clc1ccc(-c2ncc(C*)s2)cc1; Hyp = O=C(O)[CH]1C[CH](O)CN1; NHPhenethyl = c1ccc(CCN*)cc1; X20 = FC(F)(F)c1cccc(C*)c1; X31 = Clc1ccc2scc(C*)c2c1; Morpholide = C1CN(*)CCO1; X18 = CC(=O)c1cccc(N*)c1; X17 = c1nc2ccc(N*)cc2s1; X9 = COc1ccc(OC)c(N*)c1; 2Abz = Nc1ccccc1C(=O)O; Abu = CC[CH](N)C(=O)O; X38 = CC(C)c1ccccc1N*; CO = O=C([*:1])[*:2]; NHBn = c1ccc(CN*)cc1; X29 = Fc1ccc(C*)cc1F; Bz = O=C(c1ccccc1)*; NHPh = c1ccc(N*)cc1; X1 = Cc1noc(C)c1C*; Bn = c1ccc(C*)cc1; X37 = COCC(C)N*

target: T1, HCV NS3 protease (Hepatitis C virus genotype 1a, UniProt P27958); test: Enzyme inhibition of HCV NS3 serine protease (cleavage of peptide substrate / EDVV AbuC-p-nitroanilide, with or without NS4A); assay type: biochemical; conditions: not given
T1 construct: more particularly HCV NS3 proteases
Description: Cleavage reactions were quenched by the addition of an equal volume of a mixture of 10% TFA:acetonitrile (1:1) and activity was assessed on a reversed phase HPLC column (Rainin C18 Microsorb-MV, […], 4.6×250 mm; 0-50% acetonitrile, 0.1% TFA@ 3.33% min) using a Hewlett Packard 1050 instrument with auto-injection and diode array detection at 210 nm and 280 nm (where appropriate). Peptide elution fragments were collected and identified by mass spectrometry and N-terminal sequence analysis. Fragment identity and concentration was further verified by authentic, synthesized products. Initial rates of cleavage were determined at <20% substrate conversion and catalytic parameters were determined assuming Michaelis-Menten kinetics using the MultiFit program (Day Computing, Cambridge, Mass.).
Spectrophotometric assays were run in a 96-well microtiter plate at 30 C, using a SpectraMax 250 reader (Molecular Devices, Sunnyvale, Calif.) with kinetic capability. Cleavage of EDVV AbuC-p-nitroanilide (5A-pNA) substrate was performed with or without […] in the same buffer used for HPLC assays at 30 C, and pNA release was monitored at 405 nm. The extinction-coefficient of p-nitroaniline is independent of pH at values of 5.5. and above [Tuppy, H., et al., Hoppe-Seyler's Z. Physiol. Chem., 329, pp. 278-288 (1962)]; Raybuck and Luong, unpublished observations).
Kinetic constants for the rapid equilibrium ordered bisubstrate reaction were determined from rate vs [4A], [EDVV AbuC-pNA] data by non-linear least squares fitting to equation 1 [Morrison, J. F. Biochim. Biophys. Acta, 185, pp. 269-286 (1969)] as described in the text. Kii and Kis values for peptidyl inhibitors were determined from rate vs [inhibitor], [substrate] data and fitting to the equation for mixed inhibition: rate=Vmax[S]/{Km(1+[I]/Kis)+[S](1+[I]/Kii)} The commercial program KinetAsyst (StateCollege, Pa.) was used for both procedures. Ki values were calculated from rate vs [inhibitor] plots by a nonlinear least squares fit of the data to the equation of Morrison for tight binding competitive inhibition [Morrison, J. F. Biochim. Biophys. Acta, 185, pp. 269-286 (1969)]. The KineTic program (BioKin Ltd) was used for this procedure.
Ki values are expressed in μM. Category “A” indicates <1 μM inhibition; category “B” indicates 1-100 μM inhibition; category “C” indicates >100 μM.

T1 sequence (P27958 1027-1208): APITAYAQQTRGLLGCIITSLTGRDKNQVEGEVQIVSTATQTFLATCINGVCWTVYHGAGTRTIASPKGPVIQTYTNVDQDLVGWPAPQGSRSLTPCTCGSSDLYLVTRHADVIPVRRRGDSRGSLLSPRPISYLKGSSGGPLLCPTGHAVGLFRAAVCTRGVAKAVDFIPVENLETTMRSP

Row | SMILES | Ki [µM]
1 | CCC(NC(=O)C1CC(OCc2ccc3ccccc3c2)CN1C(=O)C(NC(=O)C(NC(=O)c1cnccn1)C(C)C)C(C)C)P(=O)(Oc1ccccc1)Oc1ccccc1 (stereo not drawn) [Compound 72] | 1 to 100

same assay, conditions: Enzyme inhibition data; Ki from rate vs [inhibitor] plots, Morrison tight binding competitive inhibition fit; 30 C, pH 7.8; read-out: Ki

Row | SMILES | Ki [µM]
2 | CCC(C=O)NC(=O)C1CC(OC(=O)Nc2ccccc2C(C)C)CN1C(=O)C(NC(=O)C(NC(=O)c1cnccn1)C(C)C)C(C)C (stereo not drawn) [Compound 54] (Pyrazinecarbonyl-VV[Hyp]([CO-X38])[Abu]-aldehyde; configuration not given here) | 1 to 100
3 | CCC(C=O)NC(=O)C1CC(OC(=O)Nc2ccccc2C(=O)OC)CN1C(=O)C(NC(=O)C(NC(=O)c1cnccn1)C(C)C)C(C)C (stereo not drawn) [Compound 55] (Pyrazinecarbonyl-VV[Hyp]([CO-2Abz-OMe])[Abu]-aldehyde; configuration not given here) | 1 to 100
4 | CCC(C=O)NC(=O)C1CC(OC(=O)Nc2cc(OC)ccc2OC)CN1C(=O)C(NC(=O)C(NC(=O)c1cnccn1)C(C)C)C(C)C (stereo not drawn) [Compound 41] (Pyrazinecarbonyl-VV[Hyp]([CO-X9])[Abu]-aldehyde; configuration not given here) | 1 to 100
5 | CCC(NC(=O)C(CC(C)C)NC(=O)C(NC(=O)C(NC(=O)c1cnccn1)C(C)C)C(C)C)C(=O)C(=O)NCCc1ccccc1 (stereo not drawn) [Compound 115] | 1 to 100
6 | CCC(C=O)NC(=O)C1CC(OCc2ccccc2)CN1C(=O)C(NC(=O)C(NC(=O)c1cnccn1)C(C)OCc1ccccc1)C(C)C (stereo not drawn) [Compound 142] (Pyrazinecarbonyl-T(Bn)V[Hyp](Bn)[Abu]-aldehyde; configuration not given here) | 1 to 100
7 | CCC(NC(=O)C(CC(C)C)NC(=O)C(NC(=O)C(NC(=O)C(CC(=O)O)NC(=O)C(CCC(=O)O)NC(C)=O)C(C)C)C(C)C)C(=O)C(=O)N1CCOCC1 (stereo not drawn) [Compound 109] (Ac-EDVVL[ξ(3-Amino-2-oxopentanoyl)]-Morpholide; configuration not given here) | 1 to 100
8 | CCC(C=O)NC(=O)C1CC(OC(=O)Nc2cccc(Cl)c2)CN1C(=O)C(NC(=O)C(NC(=O)c1cnccn1)C(C)C)C(C)C (stereo not drawn) [Compound 32] (Pyrazinecarbonyl-VV[Hyp]([CO-NH(3-Cl-phenyl)])[Abu]-aldehyde; configuration not given here) | 1 to 100
9 | CCC(C=O)NC(=O)C1CC(OCc2csc3ccc(Cl)cc23)CN1C(=O)C(NC(=O)C(NC(=O)c1cnccn1)C(C)C)C(C)C (stereo not drawn) [Compound 23] (Pyrazinecarbonyl-VV[Hyp](X31)[Abu]-aldehyde; configuration not given here) | 1 to 100
10 | CCC(C=O)NC(=O)C1CC(OCc2ccccc2)CN1C(=O)C(NC(=O)c1ccccc1)C(C)C (stereo not drawn) [Compound 149] (Bz-Val-[Hyp](Bn)-[Abu]-aldehyde; configuration not given here) | 1 to 100
11 | CCOc1ccc2ccccc2c1C(=O)NC(C(=O)N1CC(OCc2ccccc2)CC1C(=O)NC(C=O)CC)C(C)C (stereo not drawn) [Compound 197] | 1 to 100
12 | CCC(NC(=O)C1CC(OCc2ccccc2)CN1C(=O)C(NC(=O)C(NC(=O)c1cnccn1)C(C)C)C(C)C)C(=O)C(F)(F)C(F)(F)F (stereo not drawn) [Compound 75] | 1 to 100
13 | CCC(C=O)NC(=O)C1CC(NC(=O)CCc2ccccc2)CN1C(=O)C(NC(=O)C(NC(=O)c1cnccn1)C(C)C)C(C)C (stereo not drawn) [Compound 63] | 1 to 100
14 | CCC(C=O)NC(=O)C1CC(OCc2c(C)noc2C)CN1C(=O)C(NC(=O)C(NC(=O)c1cnccn1)C(C)C)C(C)C (stereo not drawn) [Compound 12] (Pyrazinecarbonyl-VV[Hyp](X1)[Abu]-aldehyde; configuration not given here) | 1 to 100
15 | CCOP(=O)(OCC)C(CC)NC(=O)C1CC(OCc2ccccc2)CN1C(=O)C(NC(=O)C(NC(=O)c1cnccn1)C(C)C)C(C)C (stereo not drawn) [Compound 77] | > 100
16 | CCC(C=O)NC(=O)C1CC(OCc2ccccc2)CN1C(=O)C(NC(=O)CCCc1ccccc1)C(C)C (stereo not drawn) [Compound 166] | > 100
17 | CCC(C=O)NC(=O)C1CC(OCc2ccc(Cl)c(Cl)c2)CN1C(=O)C(NC(=O)C(NC(=O)c1cnccn1)C(C)C)C(C)C (stereo not drawn) [Compound 10] (Pyrazinecarbonyl-VV[Hyp](Benzyl(3,4-Cl2))[Abu]-aldehyde; configuration not given here) | 1 to 100
18 | CCC(C=O)NC(=O)C1CC(OCc2ccccc2)CN1C(=O)C(NC(=O)CCc1ccccc1)C(C)C (stereo not drawn) [Compound 147] (Hydrocinnamoyl-Val-[Hyp](Bn)-[Abu]-aldehyde; configuration not given here) | > 100
19 | CCC(NC(=O)C(CC(C)C)NC(=O)C(NC(=O)C(NC(=O)C(CC(=O)O)NC(=O)C(CCC(=O)O)NC(C)=O)C(C)C)C(C)C)C(=O)C(=O)NCCc1ccccc1 (stereo not drawn) [Compound 104] (Ac-EDVVL[ξ(3-Amino-2-oxopentanoyl)]-NHPhenethyl; configuration not given here) | < 1

Row | SMILES | Ki [µM]
20 | CCC(NC(=O)C(CC(C)C)NC(=O)C(NC(=O)C(NC(=O)c1cnccn1)C(C)C)C(C)C)C(=O)C(=O)NCCc1ccc(OCc2ccccc2)c(OCc2ccccc2)c1 (stereo not drawn) [Compound 113] | 1 to 100
21 | CCC(C=O)NC(=O)C1CC(OC(=O)NCc2ccccc2)CN1C(=O)C(NC(=O)C(NC(=O)c1cnccn1)C(C)C)C(C)C (stereo not drawn) [Compound 50] (Pyrazinecarbonyl-VV[Hyp]([CO-NHBn])[Abu]-aldehyde; configuration not given here) | 1 to 100
22 | CCC(C=O)NC(=O)C1CC(OC(=O)Nc2ccc3c(c2)OCO3)CN1C(=O)C(NC(=O)C(NC(=O)c1cnccn1)C(C)C)C(C)C (stereo not drawn) [Compound 44] (Pyrazinecarbonyl-VV[Hyp]([CO-NH(1,3-benzodioxol-5-yl)])[Abu]-aldehyde; configuration not given here) | 1 to 100
23 | CCC(C=O)NC(=O)C1CC(OC(=O)Nc2cccc(C(C)=O)c2)CN1C(=O)C(NC(=O)C(NC(=O)c1cnccn1)C(C)C)C(C)C (stereo not drawn) [Compound 36] (Pyrazinecarbonyl-VV[Hyp]([CO-X18])[Abu]-aldehyde; configuration not given here) | > 100
24 | CCC(NC(=O)C(CC(C)C)NC(=O)C(NC(=O)C(NC(=O)C(CC(=O)O)NC(=O)C(CCC(=O)O)NC(C)=O)C(C)C)C(C)C)C(=O)C(=O)NC(C)COC (stereo not drawn) [Compound 106] (Ac-EDVVL[ξ(3-Amino-2-oxopentanoyl)]-X37; configuration not given here) | < 1
25 | CCC(C=O)NC(=O)C1CC(OCc2ccccc2)CN1C(=O)C(NC(=O)c1c(C)cccc1C)C(C)C (stereo not drawn) [Compound 193] | > 100
26 | CCC(C=O)NC(=O)C1CC(OCc2ccc(F)c(F)c2)CN1C(=O)C(NC(=O)C(NC(=O)c1cnccn1)C(C)C)C(C)C (stereo not drawn) [Compound 22] (Pyrazinecarbonyl-VV[Hyp](X29)[Abu]-aldehyde; configuration not given here) | 1 to 100
27 | CCCCC(C(=O)O)C(=O)NC(C(=O)N1CC(OCc2ccccc2)CC1C(=O)NC(C=O)CC)C(C)C (stereo not drawn) [Compound 172] | > 100
28 | CCC(C=O)NC(=O)C1CC(OCc2cccc(C(F)(F)F)c2)CN1C(=O)C(NC(=O)C(NC(=O)c1cnccn1)C(C)C)C(C)C (stereo not drawn) [Compound 16] (Pyrazinecarbonyl-VV[Hyp](X20)[Abu]-aldehyde; configuration not given here) | 1 to 100
29 | CCC(C=O)NC(=O)C1CC(OCc2ccccc2)CN1C(=O)C(NC(=O)c1c2c(nc3ccccc13)CCCC2)C(C)C (stereo not drawn) [Compound 183] | 1 to 100
30 | CCC(C=O)NC(=O)C1CC(OCc2ccccc2)CN1C(=O)C(NC(=O)c1ccc(O)c(Cl)c1)C(C)C (stereo not drawn) [Compound 156] | 1 to 100
31 | CCC(C=O)NC(=O)C1CC(OC(=O)Nc2ccc3ncsc3c2)CN1C(=O)C(NC(=O)C(NC(=O)c1cnccn1)C(C)C)C(C)C (stereo not drawn) [Compound 35] (Pyrazinecarbonyl-VV[Hyp]([CO-X17])[Abu]-aldehyde; configuration not given here) | 1 to 100
32 | CCC(C=O)NC(=O)C1CC(OCc2ccccc2)CN1C(=O)C(NC(=O)c1c(-c2ccccc2Cl)noc1C)C(C)C (stereo not drawn) [Compound 182] | > 100
33 | CCC(C=O)NC(=O)C1CC(OCc2cnc(-c3ccc(Cl)cc3)s2)CN1C(=O)C(NC(=O)C(NC(=O)c1cnccn1)C(C)C)C(C)C (stereo not drawn) [Compound 24] (Pyrazinecarbonyl-VV[Hyp](X26)[Abu]-aldehyde; configuration not given here) | 1 to 100
34 | CCC(C=O)NC(=O)C1CC(OCc2ccccc2)CN1C(=O)C(NC(=O)c1c[nH]c2ccccc12)C(C)C (stereo not drawn) [Compound 175] | 1 to 100
35 | CCC(C=O)NC(=O)C1CC(OCc2ccccc2)CN1C(=O)C(NC(=O)c1cccc2ccccc12)C(C)C (stereo not drawn) [Compound 159] | 1 to 100
36 | CCC(C=O)NC(=O)C1CC(OCc2ccccc2)CN1C(=O)C(NC(=O)Nc1ccccc1)C(C)C (stereo not drawn) [Compound 145] ({NHPh-CO}-Val-[Hyp](Bn)-[Abu]-aldehyde; configuration not given here) | 1 to 100
